Reference: paper PMC7575681 (EJNMMI Research, 2020)

How the values were obtained:
[1] = Micro-PET/CT brain imaging in ICR mice with thiamine deficiency (TD) and control mice; format: in vivo; details: control mice (C57BL/6 and ICR, Fig. 3a, c)
Excerpt: Eight-week-old male C57BL/6 and ICR mice were randomly divided into two groups: TD mouse models (n = 2 for C57BL/6, one died due to anesthesia during micro-PET/CT scanning; n = 3 for ICR) were established by feeding thiamine-deprived diet (Trophic Animal Feed High-tech Co., Ltd., China). Control mice (n = 3 for each strain) were fed the general diet. Twenty-eight days later, all mice received PET/CT scanning.
The animals were anesthetized by inhaling 1.5–2% of isoflurane in air (1.5 L/min) and received CT scan for acquiring structure image and attenuation correction data. […] Brain PET imaging was immediately performed and dynamically acquired for 90 min with an energy window of 350–650 KeV and a time window of 3.438 ns. […] Dynamic images were reconstructed by OSEM3D/SP-MAP algorithm with two iterations. After scanning, the mice were sacrificed.

[2] = parameters: method as in PMID 21498533; details: cited from earlier work

| Compound | SUVs in the brains [1] | SUV in the brains of mice [2] |
| --- | --- | --- |
| ^18F-deoxy-thiamine | less than 0.4 |  |
| OC[C@H]1OC(O)[C@H]([18F])[C@@H](O)[C@@H]1O (some centres unmarked) [FDG, [^18F]-fluorodeoxyglucose] |  | 1–2 |
